{"source": "patent US20160184338A1", "about": "“Bioactive Alkaloid Compositions and Their Medical Uses” (Asiros A/S, priority 2013, published 2016)", "key": {"[1]": {"molecular_target": "T1, IkappaB kinase β (IKK-β) (Homo sapiens, UniProt O14920)", "T1 construct": "purchased Invitrogen", "T1 sequence (O14920 1-756)": "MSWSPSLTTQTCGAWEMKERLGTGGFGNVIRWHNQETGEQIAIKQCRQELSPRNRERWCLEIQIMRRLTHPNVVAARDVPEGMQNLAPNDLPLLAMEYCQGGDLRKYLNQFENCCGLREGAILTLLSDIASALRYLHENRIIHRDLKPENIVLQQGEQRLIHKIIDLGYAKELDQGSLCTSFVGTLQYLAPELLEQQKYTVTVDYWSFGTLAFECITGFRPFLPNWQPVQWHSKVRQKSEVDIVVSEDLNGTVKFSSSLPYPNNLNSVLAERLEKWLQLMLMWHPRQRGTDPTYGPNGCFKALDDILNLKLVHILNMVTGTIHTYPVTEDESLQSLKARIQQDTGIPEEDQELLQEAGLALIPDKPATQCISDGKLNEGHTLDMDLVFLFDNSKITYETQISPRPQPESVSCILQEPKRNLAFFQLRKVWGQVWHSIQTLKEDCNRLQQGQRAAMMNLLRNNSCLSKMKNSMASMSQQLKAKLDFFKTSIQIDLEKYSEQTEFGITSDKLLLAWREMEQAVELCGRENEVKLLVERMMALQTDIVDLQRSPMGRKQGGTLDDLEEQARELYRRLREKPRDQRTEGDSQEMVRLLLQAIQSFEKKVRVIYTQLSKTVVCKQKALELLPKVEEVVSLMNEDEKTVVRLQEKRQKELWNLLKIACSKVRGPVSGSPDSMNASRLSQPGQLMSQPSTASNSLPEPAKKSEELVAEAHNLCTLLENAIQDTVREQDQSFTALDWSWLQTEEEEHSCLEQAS", "assay": "IKK-β inhibition, Z'-LYTE Kinase Assay Kit-Ser/Thr 5 Peptide (FRET)", "assay_type": "biochemical", "experimental": "IKK-β phosphorylates the inhibitory IκB protein associated with NE-κB. Phosphorylation results in the dissociation of IκB from NE-κB, allowing NE-κB to migrate into the cell nucleus where it can activate the transcription of at least 150 genes. The Z9-LYTE™ Kinase Assay Kit-Ser/Thr 5 Peptide is designed to screen for potential IKK-β inhibitory effect using fluorescence resonance energy transfer (FRET) between coumarin and fluorescein for detection by a fluorometer.\nThe assay was performed according to Z9-LYTE™ KINASE ASSAY KIT-SER/THR 5 PEPTIDE protocol provided by Invitrogen [Invitrogen, Z′-LYTE™ Kinase Assay Kit-Ser/Thr 5 Peptide Protocol, O-062187-r1 US 0405]. Based on the IKK-β certificate of the kit, a kinase concentration of 500 ng/ml was chosen. Km for ATP 9.4 μM was chosen according to an optimization for the LanthaScreen™ kinase assay [http://tools.invitrogen.com/content/sfs/manuals/IKBKB_%28IKK_beta%29_LanthaScreen_Activity.pdf].\n(§1) A fluorescence plate reader (Appliskan, Thermo Scientific) was used to detect fluorescence emission signals according to the following parameters:\n(§2) Selected alkaloids of the invention prepared in example 1 were tested in 5 times dilutions to establish the 50% inhibitory concentration (IC-50)."}, "[2]": {"molecular_target": "T2, PDE4A1A (Homo sapiens, UniProt P27815)", "T2 construct": "purchased BSP Bioscience 60340", "T2 sequence (P27815 1-647 isoform P27815-4)": "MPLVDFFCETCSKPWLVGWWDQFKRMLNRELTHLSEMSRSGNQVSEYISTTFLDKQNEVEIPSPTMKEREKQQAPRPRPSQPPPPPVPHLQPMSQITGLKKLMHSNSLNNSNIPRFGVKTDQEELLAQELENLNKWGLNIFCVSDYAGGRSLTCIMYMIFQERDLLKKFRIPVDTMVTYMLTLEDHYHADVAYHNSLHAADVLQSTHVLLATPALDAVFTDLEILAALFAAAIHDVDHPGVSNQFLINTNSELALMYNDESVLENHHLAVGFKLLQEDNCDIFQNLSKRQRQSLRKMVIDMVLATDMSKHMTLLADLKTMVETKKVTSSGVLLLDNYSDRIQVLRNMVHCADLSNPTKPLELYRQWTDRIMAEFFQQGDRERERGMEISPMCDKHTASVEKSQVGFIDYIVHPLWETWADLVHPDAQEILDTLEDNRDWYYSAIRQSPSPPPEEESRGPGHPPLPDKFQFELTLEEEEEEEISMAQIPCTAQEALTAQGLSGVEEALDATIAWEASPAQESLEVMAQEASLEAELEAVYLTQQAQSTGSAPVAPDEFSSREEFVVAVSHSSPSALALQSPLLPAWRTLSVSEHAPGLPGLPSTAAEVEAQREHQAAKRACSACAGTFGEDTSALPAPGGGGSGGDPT", "assay": "PDE4A1A Assay Kit, fluorescence polarization", "assay_type": "biochemical", "conditions": "PDE4", "experimental": "Inhibition of PDE4 blocks hydrolysis of cAMP, thereby increasing levels of cAMP. The PDE4A1A Assay Kit is designed for identification of PDE4A1A inhibitors using fluorescence polarization. The assay is based on the binding of fluorescent AMP generated by PDE4A1A to the binding agent.\nThe assay was performed according to the protocol of the PDE4A1A assay provided by BSP Bioscience [BSP Bioscience, Data sheet PDE4A1A Assay Kit, Catalog #60340].\nas §1, §2"}, "[3]": {"molecular_target": "T3, PDE5A (Homo sapiens, UniProt O76074)", "T3 construct": "purchased BSP Bioscience 60350", "assay": "PDE5A Assay Kit, fluorescence polarization", "assay_type": "biochemical", "conditions": "PDE5", "experimental": "Inhibition of PDE5 blocks hydrolysis of cGMP, thereby increasing levels of cGMP. The PDE5A Assay Kit is designed for identification of PDE5A inhibitors using fluorescence polarization. The assay is based on the binding of a fluorescent nucleotide monophosphate generated by PDE5A to the binding agent.\nThe assay was performed according to the protocol of the PDE5A assay provided by BSP Bioscience [BSP Bioscience, Data sheet PDE5A Assay Kit, Catalog #60350].\nas §1\nTest Compounds • Selected alkaloids of the invention prepared in example 1 were tested in 5 times dilutions to establish the 50% inhibitory concentration (IC-50)."}, "[4]": {"system": "hyperlipidemic guinea pigs", "assay": "Hypocholesterolemic effect in guinea pigs on high fat diet", "assay_type": "in vivo, guinea pig", "conditions": "10 mg/kg oral daily, 28 days", "experimental": "Male Dunkin-Hartley guinea pigs weighing 300+/−30 g were acclimated one week before the in-life phase of the experiment. The study diet (Research Diets Inc, New Brunswick, N.J., USA) contained 15% corn oil and 0.25% cholesterol. A daily oral dose of 2000 mg/kg of RAP2 corresponding 9 μg/kg of Ribetril A and 82 μg/kg total Ribetrils as well as 632 μg/kg total Glucoindols was administered orally at a dosing volume of 10 mL/kg. A daily oral dose of 2000 mg/kg of RAP4 corresponding to 112 μg/kg of Ribetril A and 492 μg/kg total Ribetrils as well as 240 μg/kg total Glucoindols was administered orally at a dosing volume of 10 mL/kg. The positive control atorvastatin (10 mg/kg) and vehicle (0.5% methylcellulose) were each administered orally at a dosing volume of 10 mL/kg. […]\nAfter fasting overnight, blood samples were obtained from the retro-orbital sinus of each animal 5 min before initial test substance and/or vehicle administration (pre-treatment) and 24 hours after dosing on days 14 and 28 (post-treatment). The serum total cholesterol (TC), low density lipoprotein cholesterol (LDL-C), high density lipoprotein cholesterol (HDL-C) and triglycerides (TG) were determined by an enzymatic method (Wako total cholesterol, LDL-C, HDL-C & TG diagnostic kit and Toshiba Automatic Analyzer Model TAB-120FR)."}, "[5]": {"system": "BKS Cg-Lepr db/Lepr db mice", "assay": "Hypoglycemic effect in NIDDM mice", "assay_type": "in vivo, mouse", "conditions": "oral daily 14 days (RAP4 2000 mg/kg, metformin 300 mg/kg), day 14 post dosing", "experimental": "Male non-insulin dependent diabetic mellitus (NIDDM) mice (BKS Cg-Lepr db/Lepr db) weighing 50+/−5 g were used at age of 12-13 weeks. A daily oral dose of 2000 mg/kg of RAP4 corresponding to corresponding to 112 μg/kg of Ribetril A and 492 μg/kg total Ribetrils as well as 240 μg/kg total Glucoindols was administered orally at a dosing volume of 10 mL/kg to 12 animals for a total of 14 consecutive days. The positive control of metformin (300 mg/kg) and vehicle (2% Tween 80) were each administered orally at a dosing volume of 10 mL/kg to groups of 6 animals once daily for a total of 14 consecutive days. Serum glucose levels were measured by means of an automated analyzer (TBA-120FR, Toshiba) and serum insulin by ELISA at zero min (pre-treatment) on Day 1, and at 90 min after the daily dosing (post-treatment) on Day 7 and Day 14."}}, "note": "Entries after “also recorded” stand apart in the source; their conditions may differ."}
{"smiles": "N#C/C(=C\\CO[C@@H]1O[C@H](CO)[C@@H](O)[C@H](O)[C@H]1O)COC(=O)/C=C/c1ccc(O)c(O)c1", "note": "[Ribetril A, (E)-(E)-2-cyano-4-(((2R,3R,4S,5S,6R)-3,4,5-trihydroxy-6-(hydroxymethyl)tetrahydro-2H-pyran-2-yl)oxy)but-2-en-1-yl 3-(3,4-dihydroxyphenyl)acrylate]", "values": [{"measurement": "times lower IC-50 as compared to Ribetril B", "setting": "[1]", "result": 48, "unit": "times"}, {"measurement": "times lower IC-50 as compared to Ribetril C", "setting": "[1]", "result": 118, "unit": "times"}, {"measurement": "times lower IC-50 as compared to Ribetril B", "setting": "[2]", "result": 5, "unit": "times"}, {"measurement": "times lower IC-50 as compared to Ribetril C", "setting": "[2]", "result": 20, "unit": "times"}, {"measurement": "times lower IC-50 as compared to Ribetril B", "setting": "[3]", "result": 3, "unit": "times"}, {"measurement": "times lower IC-50 as compared to Ribetril C", "setting": "[3]", "result": 8, "unit": "times"}]}
{"smiles": "CC(C)c1c(C(=O)Nc2ccccc2)c(-c2ccccc2)c(-c2ccc(F)cc2)n1CC[C@@H](O)C[C@@H](O)CC(=O)O", "note": "[atorvastatin]", "values": [{"measurement": "effect on triglycerides", "setting": "[4]", "result": "did not significantly reduce triglycerides; also recorded: did not display a significant decreasing effect on triglyceride levels"}]}
{"smiles": "CN(C)C(=N)N=C(N)N", "note": "[metformin]", "values": [{"measurement": "serum glucose levels relative to vehicle control", "setting": "[5]", "result": "significant decrease"}]}
